Measurements: patent US9675659B2 (Trilogy Therapeutics, Inc., priority 2015, dated 2017)
≈ marks a conversion by molar mass, not a printed value. Where two headings read alike, the source gives them in different places. Starred links: 1 amine or outer side, 2 acyl side, 3 side chain; linkers in the order of their positions; H or OH if unused. Positions of bridges follow the written chain, without caps; N, C: chain ends. Non-standard residues stand in square brackets, D forms with d. Residues, ends and D or L forms follow the SMILES beside them. *: point of attachment. hTyr(3S-OH,4S-OH,3'-OSO3H) = N[C@H](C(=O)O)[C@H](O)[C@@H](O)c1ccc(O)c(OS(=O)(=O)O)c1; pTerphenylCO(4''-OnC5H11) = CCCCCOc1ccc(-c2ccc(-c3ccc(C(=O)*)cc3)cc2)cc1; Orn(4R-OH,5R-OH) = O=C([C@H](C[C@@H](O)[C@@H](O)N[*:3])N[*:1])[*:2]; hTyr(3S-OH,4S-OH) = N[C@H](C(=O)O)[C@H](O)[C@@H](O)c1ccc(O)cc1; Pro(3S-OH,4S-Me) = C[C@H]1CN[C@H](C(=O)O)[C@H]1O; X1 = CCCCCOc1ccc(-c2cc(-c3ccc(C(=O)*)cc3)no2)cc1; Gln(3R-OH) = NC(=O)C[C@@H](O)[C@H](N)C(=O)O; Hyp = O=C(O)[C@@H]1C[C@@H](O)CN1

How the values were obtained:
Aspergillus flavus [1] = conditions: 13 isolates; cited from earlier work
Aspergillus versicolor = conditions: 75 isolates; cited from earlier work
Aspergillus terrus [2] = conditions: 385 isolates; cited from earlier work
Candida parapsilosis = conditions: 759 isolates; cited from earlier work
Aspergillus flavus [3] = conditions: 432 isolates; cited from earlier work
Aspergillus terrus [4] = conditions: 11 isolates; cited from earlier work
Aspergillus nidulans [5] = conditions: 192 isolates; cited from earlier work
Aspergillus fumigatus [6] = conditions: 56 isolates; cited from earlier work
Aspergillus nidulans [7] = conditions: 13 isolates; cited from earlier work
Candida guilliermondii = conditions: 61 isolates; cited from earlier work
[8] = Toxicology observations in the rat inhalation/IV study (mortality, clinical signs, body weight, necropsy); assay type: in vivo; conditions: male rats, nose-only inhalation or intravenous injection, 2 mg/kg
Protocol: A detailed, hand-held physical examination was conducted on all animals once during the quarantine period (prior to randomization). During the treatment period, the animals were observed daily for mortality or evidence of moribundity; these checks were separated by a minimum of four hours. Daily cage-side clinical observations were conducted during exposure, and daily hand-held clinical observations were conducted before and after exposure. Observations included, but were not limited to the following: changes in the skin and fur, eyes, and mucous membranes; effects on the respiratory, circulatory, autonomic and central nervous systems; and effects on somatomotor activity and behavior pattern.
Body Weights and Body Weight Changes: Body weights were determined one day after animal receipt; at randomization; and prior to exposure on Study Day 1, 2, 3 and 7 (as applicable based on scheduled euthanization).

Aspergillus niger [9] = conditions: 440 isolates; cited from earlier work
Candida albicans = conditions: 2869 isolates; cited from earlier work
Candida tropicalis = conditions: 625 isolates; cited from earlier work
[10] = rat, 2 mg/kg, cited from earlier work
Aspergillus niger [11] = conditions: 10 isolates; cited from earlier work
Candida krusei = conditions: 136 isolates; cited from earlier work
in vivo = conditions: Sprague-Dawley, rat
Protocol: Tissue specimens (lung, liver and kidney) were collected from three animals per time point at 0.5, 2, 24 and 48 hours and 7 days after dose administration. All tissue specimens were stored frozen at approximately −70° C. until analyzed.
In Vivo Details: Thirty Sprague-Dawley derived rats [Crl:CD®(CD)Br] were obtained from Charles River Laboratories, Inc., Wilmington, Mass., for use in this study. The rats were 52 days of age (approximately 7.5 weeks) upon arrival. One day following receipt, body weights of the rats ranged from 171 g to 213 g. The animals were held in quarantine for 7 days prior to administration of the test article. […] Before being released from quarantine, the animals were given a detailed, hand-held physical examination to ensure their health and suitability as test subjects. The test animals were approximately 8.5 weeks old at the start of the first exposure to the test article.
The resulting solution was aseptically filtered and kept refrigerated between 2-8° C. until used.
Test Article Dosing: The animals were randomized into two groups of 15 animals based on body weight.
Inhalation Exposure Methods:
All study animals surviving to scheduled necropsy were euthanized by an overdose of an intraperitoneal injection of sodium pentobarbital at 35-45 mg/kg. Tissue specimens (lung, liver and kidney) were collected from three animals per time point at 0.5, 2, 24 and 48 hours and 7 days after dose administration. All tissue specimens were stored frozen at approximately −70° C. until analyzed.
After shaking for five minutes, the sample was centrifuged at 4° C. for 10 minutes to remove precipitated proteins and supernatant was transferred to an autosampler tube, diluted with 0.5 mL of water, and vortex-mixed for instrumental analysis.
Subsequently, 100 μL of the supernatant was transferred to a 2 mL centrifuge tube and processed for analysis using the same procedure as for plasma.
Tissue results in ng were converted to g/g using the amount of tissue extracted and the final extract volume.

Candida galbrata = conditions: 747 isolates; cited from earlier work
Aspergillus fumigatus [12] = conditions: 1691 isolates; cited from earlier work
[13] = cited from earlier work
[14] = rat, intravenous; cited from earlier work

CC[C@H](C)C[C@H](C)CCCCCCCCC(=O)N[C@H]1C[C@@H](O)[C@@H](NCCN)NC(=O)[C@@H]2[C@@H](O)CCN2C(=O)[C@H]([C@H](O)CCN)NC(=O)[C@H]([C@H](O)[C@@H](O)c2ccc(O)cc2)NC(=O)[C@@H]2C[C@@H](O)CN2C(=O)[C@H]([C@@H](C)O)NC1=O [Caspofungin, caspofungin]
MIC90 Average (Geometric Mean MIC) (Aspergillus flavus [1]): 0.2 µg/mL (≈ 0.183 µM) | MIC90 Range (Aspergillus flavus [1]): 0.06 to 2 µg/mL | MEC Average (Mode, most frequent MEC) (Aspergillus versicolor): 0.12 µg/mL | MEC Range (Aspergillus versicolor): 0.032 to 2 µg/mL | MEC Average (Mode, most frequent MEC) (Aspergillus terrus [2]): 0.06 µg/mL | MEC Range (Aspergillus terrus [2]): 0.016 to 2 µg/mL | MIC90 (Candida parapsilosis): 2 µg/mL (≈ 1.83 µM) | MEC Average (Mode, most frequent MEC) (Aspergillus flavus [3]): 0.06 µg/mL | MEC Range (Aspergillus flavus [3]): 0.016 to 32 µg/mL | MIC90 Average (Geometric Mean MIC) (Aspergillus terrus [4]): 0.12 µg/mL (≈ 0.11 µM) | MIC90 Range (Aspergillus terrus [4]): 0.06 to .2 µg/mL | MEC Average (Mode, most frequent MEC) (Aspergillus nidulans [5]): 0.12 µg/mL | MEC Range (Aspergillus nidulans [5]): 0.032 to 16 µg/mL | MIC90 Average (Geometric Mean MIC) (Aspergillus fumigatus [6]): 0.25 µg/mL (≈ 0.229 µM) | MIC90 Range (Aspergillus fumigatus [6]): 0.12 to 4 µg/mL | MIC90 Average (Geometric Mean MIC) (Aspergillus nidulans [7]): 0.44 µg/mL (≈ 0.402 µM) | MIC90 Range (Aspergillus nidulans [7]): 0.2 to 4 µg/mL | MIC90 (Candida guilliermondii): 2 µg/mL (≈ 1.83 µM) | clinical signs of toxicity [8]: no clinical signs of toxicity | effects on body weight [8]: no effects on body weight | gross necropsy findings [8]: no gross necropsy findings attributable to exposure to the test article | test-article related mortality [8]: no test-article related mortality | MEC Average (Mode, most frequent MEC) (Aspergillus niger [9]): 0.06 µg/mL | MEC Range (Aspergillus niger [9]): 0.016 to 2 µg/mL | MIC90 (Candida albicans): 0.06 µg/mL (≈ 0.0549 µM) | MIC90 (Candida tropicalis): 0.06 µg/mL (≈ 0.0549 µM) | Kidney concentration, Stone 2004 (radiolabeled compound) ([10]; 0.5 h): 9.15 µg/g | Liver concentration, Stone 2004 (radiolabeled compound) ([10]; 0.5 h): 5.03 µg/g | Lung concentration, Stone 2004 (radiolabeled compound) ([10]; 0.5 h): 5.12 µg/g | Plasma concentration, Stone 2004 (radiolabeled compound) ([10]; 0.5 h): 11000 ng/mL | Kidney concentration, Stone 2004 (radiolabeled compound) ([10]; 2 h): 10.60 µg/g | Liver concentration, Stone 2004 (radiolabeled compound) ([10]; 2 h): 7.04 µg/g | Lung concentration, Stone 2004 (radiolabeled compound) ([10]; 2 h): 4.50 µg/g | Plasma concentration, Stone 2004 (radiolabeled compound) ([10]; 2 h): 6100 ng/mL | Kidney concentration, Stone 2004 (radiolabeled compound) ([10]; 24 h): 11.40 µg/g | Liver concentration, Stone 2004 (radiolabeled compound) ([10]; 24 h): 22.20 µg/g | Lung concentration, Stone 2004 (radiolabeled compound) ([10]; 24 h): 2.44 µg/g | Plasma concentration, Stone 2004 (radiolabeled compound) ([10]; 24 h): 1740 ng/mL | MIC90 Average (Geometric Mean MIC) (Aspergillus niger [11]): 0.14 µg/mL (≈ 0.128 µM) | MIC90 Range (Aspergillus niger [11]): 0.06 to 0.5 µg/mL | MIC90 (Candida krusei): 0.06 µg/mL (≈ 0.0549 µM) | concentration at 0.5 h (in vivo; kidney, inhaled, 2 mg/kg): 160 ng/g | concentration at 2 h (in vivo; kidney, inhaled, 2 mg/kg): 160 ng/g | concentration at 24 h (in vivo; kidney, inhaled, 2 mg/kg): 160 ng/g | concentration at 48 h (in vivo; kidney, inhaled, 2 mg/kg): 120 ng/g | concentration at 168 h (in vivo; kidney, inhaled, 2 mg/kg): 20 ng/g | concentration at 0.5 h (in vivo; kidney, iv, 2 mg/kg): 500 ng/g | concentration at 2 h (in vivo; kidney, iv, 2 mg/kg): 670 ng/g | concentration at 24 h (in vivo; kidney, iv, 2 mg/kg): 500 ng/g | concentration at 0.5 h (in vivo; liver, inhaled, 2 mg/kg): 90 ng/g | concentration at 2 h (in vivo; liver, inhaled, 2 mg/kg): 130 ng/g | concentration at 24 h (in vivo; liver, inhaled, 2 mg/kg): 300 ng/g | concentration at 48 h (in vivo; liver, inhaled, 2 mg/kg): 180 ng/g | concentration at 168 h (in vivo; liver, inhaled, 2 mg/kg): 20 ng/g | concentration at 0.5 h (in vivo; liver, iv, 2 mg/kg): 250 ng/g | concentration at 2 h (in vivo; liver, iv, 2 mg/kg): 310 ng/g | concentration at 24 h (in vivo; liver, iv, 2 mg/kg): 660 ng/g | concentration at 0 h (in vivo; lung, inhaled, 2 mg/kg): 10800 ng/g | concentration at 0.5 h (in vivo; lung, inhaled, 2 mg/kg): 10800 ng/g | concentration at 2 h (in vivo; lung, inhaled, 2 mg/kg): 10400 ng/g | concentration at 24 h (in vivo; lung, inhaled, 2 mg/kg): 5310 ng/g | concentration at 39 h (in vivo; lung, inhaled, 2 mg/kg): 5420 ng/g | concentration at 48 h (in vivo; lung, inhaled, 2 mg/kg): 3370 ng/g | concentration at 78 h (in vivo; lung, inhaled, 2 mg/kg): 2710 ng/g | concentration at 117 h (in vivo; lung, inhaled, 2 mg/kg): 1350 ng/g | concentration at 156 h (in vivo; lung, inhaled, 2 mg/kg): 680 ng/g | concentration at 168 h (in vivo; lung, inhaled, 2 mg/kg): 390 ng/g | concentration at 195 h (in vivo; lung, inhaled, 2 mg/kg): 340 ng/g | concentration at 273 h (in vivo; lung, inhaled, 2 mg/kg): 80 ng/g | concentration at 312 h (in vivo; lung, inhaled, 2 mg/kg): 40 ng/g | concentration at 351 h (in vivo; lung, inhaled, 2 mg/kg): 20 ng/g | concentration at 0 h (in vivo; lung, inhaled, 7.2 mg/kg): 39000 ng/g | concentration at 39 h (in vivo; lung, inhaled, 7.2 mg/kg): 19500 ng/g | concentration at 78 h (in vivo; lung, inhaled, 7.2 mg/kg): 9750 ng/g | concentration at 117 h (in vivo; lung, inhaled, 7.2 mg/kg): 4880 ng/g | concentration at 156 h (in vivo; lung, inhaled, 7.2 mg/kg): 2440 ng/g | concentration at 195 h (in vivo; lung, inhaled, 7.2 mg/kg): 1220 ng/g | concentration at 273 h (in vivo; lung, inhaled, 7.2 mg/kg): 300 ng/g | concentration at 312 h (in vivo; lung, inhaled, 7.2 mg/kg): 150 ng/g | concentration at 351 h (in vivo; lung, inhaled, 7.2 mg/kg): 80 ng/g | concentration at 0.5 h (in vivo; lung, iv, 2 mg/kg): 590 ng/g | concentration at 2 h (in vivo; lung, iv, 2 mg/kg): 540 ng/g | concentration at 24 h (in vivo; lung, iv, 2 mg/kg): 180 ng/g | concentration at 48 h (in vivo; lung, iv, 2 mg/kg): 90 ng/g | concentration at 168 h (in vivo; lung, iv, 2 mg/kg): 0 ng/g | concentration at 0.5 h (in vivo; plasma, inhaled, 2 mg/kg): 2030 ng/mL | concentration at 24 h (in vivo; plasma, inhaled, 2 mg/kg): 230 ng/mL | concentration at 48 h (in vivo; plasma, inhaled, 2 mg/kg): 80 ng/mL | concentration at 168 h (in vivo; plasma, inhaled, 2 mg/kg): 0 ng/mL | concentration at 0.5 h (in vivo; plasma, iv, 2 mg/kg): 11000 ng/mL | concentration at 2 h (in vivo; plasma, iv, 2 mg/kg): 7720 ng/mL | concentration at 24 h (in vivo; plasma, iv, 2 mg/kg): 800 ng/mL | MIC90 (Candida galbrata): 0.12 µg/mL (≈ 0.11 µM) | MEC Average (Mode, most frequent MEC) (Aspergillus fumigatus [12]): 0.25 µg/mL | MEC Range (Aspergillus fumigatus [12]): 0.016 to 32 µg/mL

CCCCCOc1ccc(-c2ccc(-c3ccc(C(=O)N[C@H]4C[C@@H](O)[C@@H](O)NC(=O)[C@@H]5[C@@H](O)[C@@H](C)CN5C(=O)[C@H]([C@@H](C)O)NC(=O)[C@H]([C@H](O)[C@@H](O)c5ccc(O)cc5)NC(=O)[C@@H]5C[C@@H](O)CN5C(=O)[C@H]([C@@H](C)O)NC4=O)cc3)cc2)cc1 [anidulafungin] ({pTerphenylCO(4''-OnC5H11)}-[Orn(4R-OH,5R-OH)]T[Hyp][hTyr(3S-OH,4S-OH)]T[Pro(3S-OH,4S-Me)]; lactam 1-C)
time levels are maintained above MICs for common pathogens ([13]; rat tissues): ≥ 72 h | exposure in tissues (liver, lung, spleen, kidney) relative to plasma ([13]; rat): 9-12 fold | time to peak concentrations in tissues ([13]; rat): ≤ 30 min

CCCCCOc1ccc(-c2cc(-c3ccc(C(=O)N[C@H]4C[C@@H](O)[C@@H](O)NC(=O)[C@@H]5[C@@H](O)[C@@H](C)CN5C(=O)[C@H]([C@H](O)CC(N)=O)NC(=O)[C@H]([C@H](O)[C@@H](O)c5ccc(O)c(OS(=O)(=O)O)c5)NC(=O)[C@@H]5C[C@@H](O)CN5C(=O)[C@H]([C@@H](C)O)NC4=O)cc3)no2)cc1 [micafungin] (X1-[Orn(4R-OH,5R-OH)]T[Hyp][hTyr(3S-OH,4S-OH,3'-OSO3H)][Gln(3R-OH)][Pro(3S-OH,4S-Me)]; lactam 1-C)
exposure in kidney relative to plasma [14]: 3.4 fold | exposure in liver relative to plasma [14]: 1.6 fold | exposure in lung relative to plasma [14]: 2.9 fold
